In US6391344B2, “Method of promoting synthesis of nerve growth factor” (Nagase & Company, Ltd., priority 1999, dated 2002):

Test system: Human glioblastoma cells (T98G, Cell line)
Experiment: Promotion of NGF synthesis: NGF content in culture supernatant by enzyme immunoassay
Assay type: cell-based
Conditions: for content of NGF in the sample solution as compared with the systems not containing any effective ingredient: result in words, both tested concentrations; for content of NGF in the sample solution as compared with the systems not containing any effective ingredient / NGF Content in sample solution: T98G cells; for NGF Content in sample solution: 4 days cultivation, mean ± standard deviation; for Relative NGF content: ratio of example solution to comparative example solution
Description: Human glioblastoma cells (T98G, Cell line) were seeded in a MEM medium containing fetal bovine serum (10%; Gibco), sodium pyruvate (×1; Gibco) and nonessential amino acids (×1; Gibco) in wells of a flat-bottom 96-well plate (Corning), in a cell density of 2×10^4/well, and cultivated in a CO2 incubator (37° C., 5% CO2) for 3 days. The medium was then replaced by an Opti-MEM medium (containing 5 mg/ml of bovine serum albumin). The cultivation was continued for further 6 days with replacing the medium at intervals of 3 days.
[…] After the cultivation, the supernatant was taken as a sample solution.
On the other hand, 1 ug/ml of an anti-NGF antibody (Promega) solution (50 ul) was added to each well of a 96-well microplate (Nunc), and the plate was allowed to stand overnight at 4° C. After washing the plate with PBS(−) (Nissui Pharmaceuticals), 1% of a bovine serum albumin (Sigma) solution (100 ul) was added to each well of the plate and the plate was allowed to stand at room temperature for 4 hrs. Subsequently, the plate was washed with PBS (−) and the above sample solution (50 ul) was added to each well of the plate. After the reaction at room temperature for one hour, the plate was washed with PBS (−).
Subsequently, 0.4 unit/ml of an beta-galactosidase-labeled anti-NGF antibody (Boehringer Mannheim) solution (50 ul) was added to each well of the plate, and allowed to react at room temperature for one hour. After washing the plate with PBS (−), 0.5 mg/ml of a 4-methylumbelliferyl-beta-D-galactoside solution (200 ul) was added to each well of the plate, and allowed to react overnight at room temperature. The fluorescence intensity of 4-methylumbelliferone produced was measured on a fluorescence plate reader, and the content of NGF contained in the sample solution was determined using a standard curve obtained from a standard solution (human beta-NGF; PEPRO TECH EC).

[1] = 20 uM effective ingredient in medium
[2] = 100 uM effective ingredient in medium

Row | SMILES | content of NGF in the sample solution as compared with the systems not containing any effective ingredient | NGF Content in sample solution [1] [pg/mL] | Relative NGF content [1] | NGF Content in sample solution [2] [pg/mL] | Relative NGF content [2]
1 | CC(C)c1cc2c(c(O)c1O)[C@@]1(C(=O)O)CCCC(C)(C)[C@@H]1CC2 [carnosic acid of the formula (I)] | increases | – | – | – | –
2 | CC(C)c1cc2c(c(O)c1O)[C@@]13CCCC(C)(C)C1C[C@@H]2OC3=O (stereo partly shown) [Carnosol of formula (II), carnosol] | – | 35.4 ± 6.9 | 5.5 | 39.9 ± 2.3 | 6.2
3 | CC(C)c1cc2c(c(O)c1O)[C@@]1(C(=O)O)CCCC(C)(C)C1CC2 (stereo partly shown) [Carnosic acid of formula (I), carnosic acid] | – | 46.0 ± 7.4 | 7.2 | 158.5 ± 16.6 | 24.8
4 | CC(C)c1cc2c(c(O)c1O)[C@@]13CCCC(C)(C)[C@@H]1C[C@@H]2OC3=O [carnosol of the formula (II)] | increases | – | – | – | –
